Measured values from patent publication US8648099B2 (Hoffmann-La Roche Inc., priority 2011, dated 2014).
Like-named read-outs stand apart in the source and are kept apart here.

Assays:
[1] = tested on: ABCA1 protein; assay: Detection of upregulation of ABCA1 protein in cells (ApoA-I binding, high content imaging); type: cell-based; conditions: THP-1 macrophage cells; for % increase of ABCA1 at 3 μM: compound at 3 μM, 24 hrs; for EC50: 24 hrs compound incubation, read-out: EC50 [μM] ABCA1 protein increasing efficacy
Method: The ability of compounds of the invention to increase the level of ABCA1 protein is determined in replicate cultures of THP-1 macrophage cells in 96-well microplates. Cells are plated at an initial density of 100,000 cells/well in 100 μl medium and differentiated to adherent macrophages with the addition of PMA (100 nM) for 68 hrs in 10% fetal bovine serum, 3 μl/L of b-mercaptoethanol, RPMI-1640 medium. Then, cells are incubated with RPMI-1640 medium containing 1% FCS, 25 μg/ml acetylated LDL, for 24 hours at 37° C. Following incubation with acetylated LDL, cells are washed twice with 50 μl PBS and incubated with 100 μl of RPMI-1640 medium containing the compound of interest solubilized in DMSO for an additional 24 hrs. The final DMSO concentration in presence of cells is maintained at 0.5%. ApoA-I binding assay using High Content Image Analysis is initiated by replacing with fresh medium, RPMI without Phenol Red, 0.2% BSA containing AlexaFluor®647 labeled ApoA-I for 2 h/37° C./5% CO2. Then, cells are fixed with 4% Formaldehyde in PBS (15 min, RT). Following Nuclei are stained with Hoechst solution (3 μM PBS) and Cytoplasm with Cell Mask Blue (2 μg/ml PBS), 15 min, RT. Finally the stained cells are fixed with a second round of formaldehyde treatment. Fixed stained cells are washed and kept in PBS at 4° C. and can be read immediately until one month after preparation.
The Alexa Fluor 647-labeled Apolipoprotein A-I (20 nM) was prepared as follows: Human recombinant Apolipoprotein A-I (ApoA-I) was exchanged to a buffer of 0.02 M NaHCO3 at pH 8.2 on an NAP desalting column (GE Healthcare) and brought to a concentration to 40 μM (1.13 mg/ml) by adjustment with the same buffer. The ApoA-I was fluorescently labeled by incubation with Alexa Fluor carboxylic acid succimidyl ester (Alexa Fluor 647, Invitrogen A-20006) at a 2:1 molar ratio (Alexa to ApoA-I) for 1 h under shaking at RT. The remaining unconjugated label was removed by buffer exchange to 0.02M NaHCO3 at pH 8.2.
Imaging and data collection were performed on an OPERA confocal microplate imaging reader using a 20× water immersion objective and UV360 or 405 laser to identify the cell nuclei and a 635 laser to identify the fluorescent ApoA-I. Eight fields of view are captured per well. Image capture and analysis was performed with the Acapella software. Background fluorescence detected in control wells without ApoA-I was subtracted.
Using XLfit3 program (ID Business Solutions Ltd. UK), the model 205 for Dose Response One Site is used to calculate the EC50 values. […] More particularly, the compounds of the present invention have EC50 values in a range of 0.1 μM to 3 μm.

[2] = molecular target: T1, human CB2 receptor (Homo sapiens, UniProt P34972); assay: CB2 receptor affinity ([3H]-CP-55,940 displacement, HEK cell membranes); type: binding; conditions: displacement of [3H]-CP-55,940 at 10 μM
T1 construct: expressed in transfected cells; host or cells: human embryonic kidney (HEK) cells, Semliki Forest Virus system, membrane preparations
T1 sequence (P34972 whole entry): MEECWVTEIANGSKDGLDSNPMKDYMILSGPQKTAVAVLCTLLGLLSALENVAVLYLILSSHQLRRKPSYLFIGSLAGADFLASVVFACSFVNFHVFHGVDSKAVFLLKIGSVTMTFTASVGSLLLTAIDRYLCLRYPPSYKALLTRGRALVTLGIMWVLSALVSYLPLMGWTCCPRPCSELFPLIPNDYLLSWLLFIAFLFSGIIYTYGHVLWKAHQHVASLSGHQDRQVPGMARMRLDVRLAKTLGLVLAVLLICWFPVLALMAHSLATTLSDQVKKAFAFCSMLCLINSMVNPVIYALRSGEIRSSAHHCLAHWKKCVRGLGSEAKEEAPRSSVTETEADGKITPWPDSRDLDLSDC
Method: (§1) The affinity of the compounds of the invention for cannabinoid CB2 receptors was determined using membrane preparations of human embryonic kidney (HEK) cells in which the human CB2 receptor is transiently transfected using a Semliki Forest Virus system in conjunction with [^3H]-CP-55,940 as radioligand. After incubation of freshly prepared cell membrane preparation with the [^3H]-ligand, with or without addition of compounds of the invention, separation of bound and free ligand was performed by filtration over glass fiber filters. Radioactivity on the filter was measured by scintillation counting.
(§2) The ability of the compounds to displace the radioligand [^3H]-CP-55,940 was measured at a concentration of 10 μM and values provided as [% inhibition @ 10 μM] both for the CB1 and CB2 receptor assay, The lower % inhibition is, the lower the likelihood of side effects based on CB1 or CB2 receptor inhibition is.

[3] = molecular target: T2, human CB1 receptor (Homo sapiens, UniProt P21554); assay: CB1 receptor affinity ([3H]-CP-55,940 displacement, HEK cell membranes); type: binding; conditions: read-out: CB1 receptor affinity [% inhibition @ 10 μM]
T2 construct: expressed in transfected cells; host or cells: human embryonic kidney (HEK) cells, Semliki Forest Virus system, membrane preparations
T2 sequence (P21554 whole entry): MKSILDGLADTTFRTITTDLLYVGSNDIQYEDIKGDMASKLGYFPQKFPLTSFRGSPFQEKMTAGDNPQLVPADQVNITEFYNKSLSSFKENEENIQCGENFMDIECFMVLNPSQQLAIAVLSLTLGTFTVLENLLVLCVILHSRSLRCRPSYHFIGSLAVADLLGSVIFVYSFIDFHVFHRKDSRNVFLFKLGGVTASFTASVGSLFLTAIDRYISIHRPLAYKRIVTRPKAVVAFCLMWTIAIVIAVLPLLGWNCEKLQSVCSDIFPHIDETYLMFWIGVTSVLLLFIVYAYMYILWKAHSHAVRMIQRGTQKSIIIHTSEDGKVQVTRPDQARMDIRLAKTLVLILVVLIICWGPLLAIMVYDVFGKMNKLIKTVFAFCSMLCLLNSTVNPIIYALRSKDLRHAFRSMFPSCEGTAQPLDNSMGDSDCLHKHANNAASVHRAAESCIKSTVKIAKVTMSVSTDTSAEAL
Method: as §1, with “cannabinoid” for “cannabinoid CB2”, “CB1” for “CB2”, “[3H]-CP-55,940” for “[^3H]-CP-55,940”
as §2

[4] = displacement of [3H]-CP-55,940 at 10 μM

Compound | inhibition at 10 µM [2] [%] | inhibition at 10 µM [3, 4] [%] | % increase of ABCA1 at 3 μM [1] [%@ 3 μM] | EC50 [1] [µM] | inhibition at 10 µM [3] [%]
O=C(NNCC(F)(F)F)c1cnc(OCC(F)(F)F)c(-c2ccc(Cl)cc2)c1 [Example 1, 5-(4-chlorophenyl)-6-(2,2,2-trifluoroethoxy)-N′-(2,2,2-trifluoroethyl)-3-pyridinecarboxylic acid hydrazide] | 10 | 42 | >45 | – | –
O=C(NN1CCOCC1)c1cnc(OCC(F)(F)F)c(-c2ccc(Cl)cc2)c1 [Example 2, 5-(4-chlorophenyl)-N-morpholino-6-(2,2,2-trifluoroethoxy)-3-pyridinecarboxamide] | 8 | 43 | >45 | – | –
O=C(NN1CCS(=O)(=O)CC1)c1cnc(OCC(F)(F)F)c(-c2ccc(Cl)cc2)c1 [Example 3, 5-(4-chloro-phenyl)-N-(1,1-dioxido-4-thiomorpholinyl)-6-(2,2,2-trifluoro-ethoxy)-3-pyridinecarboxamide] | 7 | 39 | >45 | – | –
CC(C)(C)OC(=O)N1CCCN1C(=O)c1cnc(OCC(F)(F)F)c(-c2ccc(Cl)cc2)c1 [Example 4, t-butyl 2-[(5-(4-chlorophenyl)-6-(2,2,2-trifluoroethoxy)-3-pyridinyl)carbonyl]-pyrazolidine-1-carboxylate] | 24 | 40 | >45 | – | –
CN(NC(=O)c1cnc(OCC(F)(F)F)c(-c2ccc(Cl)cc2)c1)c1ccccc1 [Example 5, 5-(4-chloro-phenyl)-6-(2,2,2-trifluoro-ethoxy)-3-pyridinecarboxylic acid N′-methyl-N′-phenyl-hydrazide] | 31 | 45 | >45 | – | –
O=C(NN1CCC(O)CC1)c1cnc(OCC(F)(F)F)c(-c2ccc(Cl)cc2)c1 [Example 6, 5-(4-chlorophenyl)-N-(4-hydroxypiperidin-1-yl)-6-(2,2,2-trifluoroethoxy)-3-pyridinecarboxamide] | -9 | – | – | 1.11 | 11
O=C(NN1CC(CN2CCOCC2)OC1=O)c1cnc(OCC(F)(F)F)c(-c2ccc(Cl)cc2)c1 (stereo not drawn) [Example 7, 5-(4-chlorophenyl)-N-(5-(morpholinomethyl)-2-oxooxazolidin-3-yl)-6-(2,2,2-trifluoroethoxy)-3-pyridinecarboxamide] | -4 | 36 | >45 | – | –
CN(NC(=O)c1cnc(OCC(F)(F)F)c(-c2ccc(Cl)cc2)c1)c1ccc(Cl)nn1 [Example 8, 5-(4-chlorophenyl)-N′-(6-chloropyridazin-3-yl)-N′-methyl-6-(2,2,2-trifluoroethoxy)-3-pyridinecarboxylic acid hydrazide] | 18 | 38 | >45 | – | –
NNC(=O)c1cnc(OCC(F)(F)F)c(-c2ccc(Cl)c(F)c2)c1 [Example 9, 5-(4-chloro-3-fluorophenyl)-6-(2,2,2-trifluoroethoxy)-3-pyridinecarboxylic acid hydrazide] | -2 | 11 | >45 | – | –
O=C(NN1CCC(O)CC1)c1cnc(OCC2CC2)c(-c2ccc(Cl)cc2)c1 [Example 10, 5-(4-chlorophenyl)-6-(cyclopropylmethoxy)-N-(4-hydroxypiperidin-1-yl)-3-pyridinecarboxamide] | 2 | 34 | – | 1.03 | –
O=C(NN1CCC(O)CC1)c1cnc(OC2CCC2)c(-c2ccc(Cl)cc2)c1 [Example 11, 5-(4-chlorophenyl)-6-cyclobutoxy-N-(4-hydroxypiperidin-1-yl)-3-pyridinecarboxamide] | -8 | 14 | – | 0.18 | –
O=C(NN1CCC(O)CC1)c1cnc(OCC(F)(F)F)c(C2CCCCC2)c1 [Example 12, 5-cyclohexyl-N-(4-hydroxypiperidin-1-yl)-6-(2,2,2-trifluoroethoxy)-3-pyridinecarboxamide] | 6 | 8 | – | 1.48 | –
CS(=O)(=O)N1CCN(NC(=O)c2cnc(OCC(F)(F)F)c(-c3ccc(Cl)cc3)c2)CC1 [Example 13, 5-(4-chlorophenyl)-N-(4-(methylsulfonyl)piperazin-1-yl)-6-(2,2,2-trifluoroethoxy)-3-pyridinecarboxamide] | 1 | 23 | – | 0.33 | –

Second part, led by results:

inhibition at 10 µM [2] [%] | inhibition at 10 µM [3, 4] [%] | Compound | % increase of ABCA1 at 3 μM [1] [%@ 3 μM] | EC50 [1] [µM] | inhibition at 10 µM [3] [%]
9 | 19 | O=C(NN1CCOCC1)c1cnc(OCC(F)(F)F)c(C2CCCC2)c1 [Example 14, 5-cyclopentyl-N-morpholino-6-(2,2,2-trifluoroethoxy)-3-pyridinecarboxamide] | – | 1.08 | –
12 | 13 | O=C(NN1CCCC1=O)c1cnc(OCC(F)(F)F)c(C2CCCC2)c1 [Example 15, 5-cyclopentyl-N-(2-oxopyrrolidin-1-yl)-6-(2,2,2-trifluoroethoxy)-3-pyridinecarboxamide] | >45 | – | –
-5 | 21 | CN(NC(=O)c1cnc(OCC(F)(F)F)c(C2CCCC2)c1)c1ccc(Cl)nn1 [Example 16, N′-(6-chloropyridazin-3-yl)-5-cyclopentyl-N′-methyl-6-(2,2,2-trifluoroethoxy)-3-pyridinecarboxylic acid hydrazide] | – | 1.17 | –
3 | 33 | COC[C@@H]1CCCN1NC(=O)c1cnc(OCC(F)(F)F)c(C2CCCC2)c1 [Example 17, (S)-5-cyclopentyl-N-(2-(methoxymethyl)pyrrolidin-1-yl)-6-(2,2,2-trifluoroethoxy)-3-pyridinecarboxamide] | – | 0.12 | –
18 | 41 | CN(NC(=O)c1cnc(OCC(F)(F)F)c(C2CCCC2)c1)c1ccccc1 [Example 18, 5-cyclopentyl-N′-methyl-N′-phenyl-6-(2,2,2-trifluoroethoxy)-3-pyridinecarboxylic acid hydrazide] | >45 | – | –
-23 | 29 | O=C(NN1CCOCC1)c1cnc(OCC(F)(F)F)c(C2CCCCC2)c1 [Example 19, 5-cyclohexyl-N-morpholino-6-(2,2,2-trifluoroethoxy)-3-pyridinecarboxamide] | – | 5.39 | –
9 | 39 | CN(NC(=O)c1cnc(OCC(F)(F)F)c(C2CCCCC2)c1)c1ccccc1 [Example 20, 5-cyclohexyl-N′-methyl-N′-phenyl-6-(2,2,2-trifluoroethoxy)-3-pyridinecarboxylic acid hydrazide] | >45 | – | –
